Design: species or system BALB/cAnNHsd mice
Details: mouse, in vivo, ip

Substance: insulin: recombinant insulin (Humalog, Eli-Lilly), positive control in glucose tolerance test
- blood glucose levels compared to the PBS and s-cal14.2b groups 30 min after administration: significantly lower
- change of blood glucose levels compared to the PBS control group after five minutes: did not significantly change

Reference: paper PMC8391312 (Biomedicines, 2021)
